The results in this text go back to patent US9856298B2 (priority 2011, dated 2018).

Values after ≈ are worked out from the molar mass of the structure shown. Like-named read-outs stand apart in the source and are kept apart here. Numbered stars: 1 amine (or outer) side, 2 acyl side, 3 side chain; on linkers, the order of the positions; unused ones are H or OH. Square brackets hold non-standard residues; d marks the D form. Primed or numbered codes have the meaning given here. Peptide text beside a SMILES is read from it. * marks the point of attachment. δOrn(α-TMG) = CN(C)C(=N[C@@H](CCCN[*:1])C(=O)[*:2])N(C)C; Guan″ = guanidino group at the N-terminus, N=C(N)*; tPEG5000 = PEG of 5000 linked via thiol group; Guan = N-guanidino (N-terminal), N=C(N)*; Hyp = O=C(O)[C@@H]1C[C@@H](O)CN1; Tle = CC(C)(C)[C@H](N)C(=O)O; Orn = NCCC[C@H](N)C(=O)O Some results are limits rather than exact numbers.

Data set [1] is described as follows: mouse serum (100%). The following applies: 37° C., up to 6 hours.
Data set [2] relates to Escherichia coli strain BL21AI. Description: Minimum inhibitory concentration in 1% TSB. In kind it is cell-based. The following applies: for MIC in TSB: E. coli BL21AI, 1% TSB, 20 hours at 37° C. The procedure: To that end, the peptides were dissolved in water and diluted in a two-fold dilution series with 1% aqueous soybean medium (TSB) in sterile 96-well plates (Greiner Bio-One GmbH) from 128 μg/ml in twelve dilution steps to 62.5 ng/ml. Overnight cultures of Escherichia coli strain BL21AI were adjusted with 1% TSB to about […] colony forming units per ml. In each case 50 μl of peptide solution per well were then mixed with in each case 50 μl of the bacteria solution, in order to achieve a starting concentration of 4×10^5 bacteria per well. After incubation for 20 hours at 37° C., the absorption at 595 nm was determined (microplate reader, TECAN Trading AG).

The conditions of data set [3]: mouse; for uncleaved peptide remaining after the indicated time (instead of half-life): serum, 15 µg/ml.
Description: 30 μl of a 1 mg/ml peptide solution were diluted with 120 μl of water and, after addition of 50 of serum, incubated at 37° C. for 0 hours, 0.5 hour, 1 hour, 2 hours or 4 hours. Alternatively, the peptide derivatives having a starting concentration of 3 mg/ml were diluted with serum to a final concentration of 15 μg/ml. According to the stability of the peptides, the samples were analysed at the times mentioned above or after 0 hours, 4 hours and 6 hours. The serum proteins were precipitated by addition of 50 μl of 15% TCA, and the supernatant was neutralised with 25 μl of 1 mol/l NaOH. The samples were made up to 250 μl with 5% B, 230 μl of the solution were transferred into a HPLC vial, and 220 μl were injected.
RP-HPLC analysis was carried out with a linear acetonitrile gradient (Biosolve BV, Valkenswaard, Netherlands) in the presence of 0.1% trifluoroacetic acid (TFA, UV grade, Fluka Chemie GmbH, Buchs, Switzerland) as ion-pair reagent. The fractions were co-crystallised with α-cyanohydroxycinnamic acid (Bruker Daltonik GmbH; Bremen, Germany) as matrix (4 mg/ml in 60% acetonitrile in 0.1% aqueous TFA) and analysed with a tandem mass spectrometer (MALDI-TOF/TOF-MS, 4700 Proteomics Analyzer; Applied Biosystems GmbH, Weiterstadt, Germany) in positive-ion reflector mode. The amount of intact peptides and their degradation products or metabolites could thus be identified and quantified at the individual times. 25% aqueous mouse serum, which was analysed in parallel for the same time intervals, was used as control.

Regarding “Guan-ONO(sPEG^750-GARSG)RPVYIPRPRPPHPRL-OH”, the cleaved bond result in data set [1] was “R-S”.

Take “Guan-OO(tPEG^750-GAARSG)NRPVYIPRPRPPHPRL-OH (Guan-[Orn][Orn]NRPVYIPRPRPPHPRL-OH; not fully specified (residue 2)) [Api 300 (tPEG^750-GAARSG)]”: the “MIC in TSB” value in data set [2] was 2.8 µM. Also, in data set [3], the “Half-life (t1/2) in serum” value came to 35 min.

In the case of “Guan-ONO(tPEG^5000-GAARSG)RPVYIPRPRPPHPRL-OH ({Guan″}-[Orn]N[Orn]RPVYIPRPRPPHPRL-OH; not fully specified (residue 3)) [Api 301 (tPEG^5000-GAARSG)]”, the “MIC in TSB” value in data set [2] was more than 47.5 µM. Further, the “uncleaved peptide remaining after the indicated time (instead of half-life)” value (shortened to “uncleaved peptide remaining”) in data set [3] (5 h) was found to be 78%.

With “Guan-ONO(sPEG^750-GRSG)RPVYIPRPRPPHPRL-OH ({Guan″}-[Orn]N[Orn]RPVYIPRPRPPHPRL-OH; not fully specified (residue 3)) [Api 301 (sPEG^750-GRSG)]”, in data set [2], the “MIC in TSB” value came out at 1.5 µM. Moreover, in data set [3], the “Half-life (t1/2) in serum” value amounted to 30 min.

Take “Guan-ONO(tPEG^750-GAARSG)RPVYIPRPRPPHPRL-OH ({Guan″}-[Orn]N[Orn]RPVYIPRPRPPHPRL-OH; not fully specified (residue 3)) [Api 301 (tPEG^750-GAARSG)]”: the “MIC in TSB” value in data set [2] stood at 2.8 µM. For the same compound, the “Half-life (t1/2) in serum” value in data set [3] was found to be 50 min.

As for “tPEG^5000-GAR-VDKPPYLPRPRPHypRHypTleYNO-NH2 (tPEG5000-GARVDKPPYLPRPRP[Hyp]R[Hyp][Tle]YN[Orn]-NH2) [tPEG^5000-GAR-Onc 110]”, in data set [3] (6 h), the “uncleaved peptide remaining” value is listed as 96%.

Turning to “Guan-ONO(tPEG^5000-GARSG)RPVYIPRPRPPHPRL-OH ({Guan″}-[Orn]N[Orn]RPVYIPRPRPPHPRL-OH; not fully specified (residue 3)) [Api 301 (tPEG^5000-GARSG)]”, in data set [2], the “MIC in TSB” value stood at 9.2 µM. In addition, the “uncleaved peptide remaining” value in data set [3] (6 h) is reported as 62%.

For “Guan-ONO(tPEG^750-GARSG)RPVYIPRPRPPHPRL-OH”, in data set [1], the cleaved bond entry was “R-S”.

In the case of “Guan-OO(tPEG^750-GARSG)NRPVYIPRPRPPHPRL-OH (Guan-[Orn][Orn]NRPVYIPRPRPPHPRL-OH; not fully specified (residue 2)) [Api 300 (tPEG^750-GARSG)]”, in data set [2], the “MIC in TSB” value is 1.5 µM. The “Half-life (t1/2) in serum” value in data set [3] came out at 45 min.

Turning to “Guan-OO(tPEG^5000-GRSG)NRPVYIPRPRPPHPRL-OH (Guan-[Orn][Orn]NRPVYIPRPRPPHPRL-OH; not fully specified (residue 2)) [Api 300 (tPEG^5000-GRSG)]”, the “MIC in TSB” value in data set [2] is more than 44.8 µM. In data set [3] (6 h), the “uncleaved peptide remaining” value stood at 75%.

Consider “Guan-ONO(sPEG^750-GAARSG)RPVYIPRPRPPHPRL-OH”, for which the cleaved bond entry in data set [1] is reported as “R-S”.

As to “Guan-ONO(tPEG^5000-GAARSG)RPVYIPRPRPPHPRL-OH”, in data set [1], the cleaved bond entry is “R-S”.

“Guan-ONO(sPEG^750-GAARSG)RPVYIPRPRPPHPRL-OH ({Guan″}-[Orn]N[Orn]RPVYIPRPRPPHPRL-OH; not fully specified (residue 3)) [Api 301 (sPEG^750-GAARSG)]”: the “MIC in TSB” value in data set [2] was 5.6 µM. For the same compound, the “Half-life (t1/2) in serum” value in data set [3] stood at 55 min.

As for “Guan-OO(sPEG^750-GAARSG)NRPVYIPRPRPPHPRL-OH (Guan-[Orn][Orn]NRPVYIPRPRPPHPRL-OH; not fully specified (residue 2)) [Api 300 (sPEG^750-GAARSG)]”, the “MIC in TSB” value in data set [2] turned out to be 2.8 µM. In data set [3], the “Half-life (t1/2) in serum” value turned out to be 45 min.

Regarding “Guan-ONO(tPEG^750-GRSG)RPVYIPRPRPPHPRL-OH”, the cleaved bond result in data set [1] was “R-S”.

For the compound “tPEG^750-GAR-VDKPPYLPRPRPHypRHypTleYNO-NH2”, the cleaved bond result in data set [1] was “R-V”.

For “Guan-OO(tPEG^750-GAARSG)NRPVYIPRPRPPHPRL-OH”, the cleaved bond entry in data set [1] is “R-S”.

Consider “Guan-ONO(tPEG^5000-GARSG)RPVYIPRPRPPHPRL-OH”, for which the cleaved bond result in data set [1] is on record as “R-S”.

For “Guan-OO(tPEG^750-GRSG)NRPVYIPRPRPPHPRL-OH (Guan-[Orn][Orn]NRPVYIPRPRPPHPRL-OH; not fully specified (residue 2)) [Api 300 (tPEG^750-GRSG)]”, in data set [2], the “MIC in TSB” value was 2.9 µM. Also, the “Half-life (t1/2) in serum” value in data set [3] turned out to be 40 min.

Regarding “Guan-O(sPEG^20000-GARSG)NNRPVYIPRPRPPHPRL-OH ({Guan″}-[Orn]NNRPVYIPRPRPPHPRL-OH; not fully specified (residue 1)) [Api 137 (sPEG^20000-GARSG)]”, the “MIC in TSB” value in data set [2] was determined as 10.2 µM.

On to “Guan-ONO(tPEG^750-GARSG)RPVYIPRPRPPHPRL-OH ({Guan″}-[Orn]N[Orn]RPVYIPRPRPPHPRL-OH; not fully specified (residue 3)) [Api 301 (tPEG^750-GARSG)]”, for which the “MIC in TSB” value in data set [2] is 1.5 µM. For the same compound, the “Half-life (t1/2) in serum” value in data set [3] worked out at 45 min.

“tPEG^750-GAR-VDKPPYLPRPRPHypRHypTleYNO-NH2 (tPEG750-GARVDKPPYLPRPRP[Hyp]R[Hyp][Tle]YN[Orn]-NH2; not fully specified) [tPEG^750-GAR-Onc 110]”: in data set [2], the “MIC in TSB” value was determined as 48.4 µM. Moreover, in data set [3] (6 h), the “uncleaved peptide remaining” value came out at 64%.

Turning to “Guan-OO(tPEG^5000-GARSG)NRPVYIPRPRPPHPRL-OH”, the cleaved bond result in data set [1] is reported as “R-S”.

For sPEG^750-GAR-VDKPPYLPRPRPPROIYNO-NH2, the cleaved bond result in data set [1] was “R-V”.

For the compound “Guan-OO(tPEG^750-GARSG)NRPVYIPRPRPPHPRL-OH”, the cleaved bond result in data set [1] is recorded as “R-S”.

For “Guan-OO(tPEG^750-GRSG)NRPVYIPRPRPPHPRL-OH”, the cleaved bond result in data set [1] is recorded as “R-S”.

“Guan-OO(tPEG^5000-GRSG)NRPVYIPRPRPPHPRL-OH”: the cleaved bond entry in data set [1] is given as “R-S”.

For the compound “Guan-ONO(tPEG^5000-GRSG)RPVYIPRPRPPHPRL-OH ({Guan″}-[Orn]N[Orn]RPVYIPRPRPPHPRL-OH; not fully specified (residue 3)) [Api 301 (tPEG^5000-GRSG)]”, in data set [2], the “MIC in TSB” value was more than 38 µM. The “uncleaved peptide remaining” value in data set [3] (6 h) was 75%.

On to “Guan-ONO(tPEG^5000-GRSG)RPVYIPRPRPPHPRL-OH”, for which the cleaved bond result in data set [1] was “R-S”.

tPEG^5000-GAR-VDKPPYLPRPRPPROIYNO-NH2: the cleaved bond entry in data set [1] is on record as “R-V”.

In the case of “Guan-OO(tPEG^5000-GAARSG)NRPVYIPRPRPPHPRL-OH (Guan-[Orn][Orn]NRPVYIPRPRPPHPRL-OH; not fully specified (residue 2)) [Api 300 (tPEG^5000-GAARSG)]”, the “MIC in TSB” value in data set [2] stood at 25.4 µM. Further, the “uncleaved peptide remaining” value in data set [3] (6 h) is 76%.

“Guan-OO(sPEG^750-GRSG)NRPVYIPRPRPPHPRL-OH”: the cleaved bond result in data set [1] is reported as “R-S”.

Take `CC[C@H](C)[C@H](NC(=O)[C@H](Cc1ccc(O)cc1)NC(=O)[C@@H](NC(=O)[C@@H]1CCCN1C(=O)[C@H](CCCNC(=N)N)NC(=O)[C@H](CC(N)=O)NC(=O)[C@H](CC(N)=O)NC(=O)[C@H](CCCNC(=O)CNC(=O)[C@@H](N)CO)N=C(N(C)C)N(C)C)C(C)C)C(=O)N1CCC[C@H]1C(=O)N[C@@H](CCCNC(=N)N)C(=O)N1CCC[C@H]1C(=O)N[C@@H](CCCNC(=N)N)C(=O)N1CCC[C@H]1C(=O)N1CCC[C@H]1C(=O)N[C@@H](Cc1c[nH]cn1)C(=O)N1CCC[C@H]1C(=O)N[C@@H](CCCNC(=N)N)C(=O)N[C@@H](CC(C)C)C(=O)O` [Api 137 (SG)] (H-SG[δOrn(α-TMG)]NNRPVYIPRPRPPHPRL-OH): in data set [2], the “MIC in TSB” value was determined as 0.2 µM (≈ 0.487 µg/mL). Moreover, the “Effect of peptide linker or remaining linker residues on the MIC” value in data set [2] (compared with the unmodified peptide) is reported as “does not increase the MIC or increases it only insignificantly”.

“sPEG^750-GAR-VDKPPYLPRPRPHypRHypTleYNO-NH2”: the cleaved bond result in data set [1] is given as “R-V”.

Regarding `CC(C)C[C@H](NC(=O)[C@H](Cc1ccc(O)cc1)NC(=O)[C@@H]1CCCN1C(=O)[C@@H]1CCCN1C(=O)[C@H](CCCCN)NC(=O)[C@H](CC(=O)O)NC(=O)[C@@H](N)C(C)C)C(=O)N1CCC[C@H]1C(=O)N[C@@H](CCCNC(=N)N)C(=O)N1CCC[C@H]1C(=O)N[C@@H](CCCNC(=N)N)C(=O)N1CCC[C@H]1C(=O)N1C[C@H](O)C[C@H]1C(=O)N[C@@H](CCCNC(=N)N)C(=O)N1C[C@H](O)C[C@H]1C(=O)N[C@H](C(=O)N[C@@H](Cc1ccc(O)cc1)C(=O)N[C@@H](CC(N)=O)C(=O)N[C@@H](CCCN)C(N)=O)C(C)(C)C` [Onc 110] (H-VDKPPYLPRPRP[Hyp]R[Hyp][Tle]YN[Orn]-NH2), the “MIC in TSB” value in data set [2] came out at 6.9 µM (≈ 16 µg/mL).

In the case of “Guan-ONO(sPEG^750-GRSG)RPVYIPRPRPPHPRL-OH”, the cleaved bond result in data set [1] is reported as “R-S”.

For “Guan-OO(tPEG^5000-GAARSG)NRPVYIPRPRPPHPRL-OH”, the cleaved bond entry in data set [1] is given as “R-S”.

Consider “Guan-OO(sPEG^750-GAARSG)NRPVYIPRPRPPHPRL-OH”, for which the cleaved bond result in data set [1] was “R-S”.

Take “Guan-O(sPEG^5000-GARSG)NNRPVYIPRPRPPHPRL-OH ({Guan″}-[Orn]NNRPVYIPRPRPPHPRL-OH; not fully specified (residue 1)) [Api 137 (sPEG^5000-GARSG)]”: in data set [2], the “MIC in TSB” value stood at 3.7 µM.

In the case of “Guan-ONO(tPEG^750-GRSG)RPVYIPRPRPPHPRL-OH (Guan-[Orn]N[Orn]RPVYIPRPRPPHPRL-OH; not fully specified (residue 3)) [Api 301 (tPEG^750-GRSG)]”, the “MIC in TSB” value in data set [2] amounted to 2.9 µM. Further, the “Half-life (t1/2) in serum” value in data set [3] is given as 55 min.

For the compound “Guan-OO(sPEG^750-GARSG)NRPVYIPRPRPPHPRL-OH”, the cleaved bond entry in data set [1] is reported as “R-S”.

For “Guan-ONO(tPEG^750-GAARSG)RPVYIPRPRPPHPRL-OH”, the cleaved bond result in data set [1] is given as “R-S”.

In the case of tPEG^750-GAR-VDKPPYLPRPRPPROIYNO-NH2, in data set [1], the cleaved bond result is recorded as “R-V”.
